Converted amounts (≈) assume the structure as drawn. Like-named read-outs stand apart in the source and are kept apart here.
Legend:
Assay in all cases: minimum inhibition concentration (MIC)
Format in all cases: cell-based
Staph. aureus MS 10225 = settings: Staphylococcus aureus, MS10225
From the text: (§1) Regarding the antimicrobial activity of the tylosin derivatives of this invention shown by formula I, the minimum inhibition concentration (MIC) is shown in Table I.

Sh. dysenteriae JS 11910 = settings: Shigella dysenteriae, JS11910
From the text: as §1

E. coli NIHJ = settings: Escherichia coli
From the text: as §1

Staph. aureus 209 P = settings: Staphylococcus aureus
From the text: as §1

Kleb. pneumoniae PCI 602 = settings: Klebsiella pneumoniae, PCI602
From the text: as §1

Ataph. aureus MS 9861 = test system: Ataph. aureus MS 9861
From the text: as §1

Sal. enteritidis 1891 = settings: Salmonella enterica
From the text: as §1

B. subtilis NRRL B-558 = settings: Bacillus subtilis, NRRLB558
From the text: as §1

[1] = Kleb. pneumoniae PCI 602, read-out: MIC
[2] = Sal. enteritidis 1891, read-out: MIC
[3] = B. subtilis NRRL B-558, read-out: MIC
[4] = Staph. aureus 209 P, read-out: MIC

CCC1OC(=O)CC(O)C(C)C(OC2OC(C)CC(N(C)C)C2O)C(CC=O)CC(C)C(=O)C=CC(C)=CC1CO (centres unmarked) [Example 2, 4'-deoxy mycaminosyl tylonolide]
MIC (Staph. aureus MS 10225): 3.12 µg/mL (≈ 5.36 µM)
MIC (Sh. dysenteriae JS 11910): < 0.2 µg/mL
MIC (E. coli NIHJ): 3.12 µg/mL (≈ 5.36 µM)
MIC (Staph. aureus 209 P; 209P): 0.2 µg/mL (≈ 0.344 µM)
MIC (Kleb. pneumoniae PCI 602; [1]): 0.78 µg/mL (≈ 1.34 µM)
MIC (Ataph. aureus MS 9861): 3.12 µg/mL (≈ 5.36 µM)
MIC (Sal. enteritidis 1891; [2]): 0.78 µg/mL (≈ 1.34 µM)
MIC (B. subtilis NRRL B-558; [3]): 0.78 µg/mL (≈ 1.34 µM)

CCC1OC(=O)CC(O)C(C)C(OC2OC(C)CC(N(C)C)C2O)C(CC=O)CC(C)C(=O)C=CC(C)=CC1COC(C)=O (centres unmarked) [Example 9, 23-O-acetyl-4'-deoxy mycaminosyl tylonolide]
MIC (Staph. aureus MS 10225): 0.78 µg/mL (≈ 1.25 µM)
MIC (Sh. dysenteriae JS 11910): 0.78 µg/mL (≈ 1.25 µM)
MIC (E. coli NIHJ): 6.25 µg/mL (≈ 10 µM)
MIC (Staph. aureus 209 P; 209P): 0.2 µg/mL (≈ 0.321 µM)
MIC (Kleb. pneumoniae PCI 602; [1]): 6.25 µg/mL (≈ 10 µM)
MIC (Ataph. aureus MS 9861): 1.56 µg/mL (≈ 2.5 µM)
MIC (Sal. enteritidis 1891; ENTERITIDIS): 1.56 µg/mL (≈ 2.5 µM)
MIC (B. subtilis NRRL B-558): 0.39 µg/mL (≈ 0.625 µM)

CCC(=O)OCC1C=C(C)C=CC(=O)C(C)CC(CC=O)C(OC2OC(C)CC(N(C)C)C2O)C(C)C(O)CC(=O)OC1CC (centres unmarked) [Example 10, 23-O-propionyl-4'-deoxy mycaminosyl tylonolide]
MIC (Staph. aureus MS 10225): 0.2 µg/mL (≈ 0.314 µM)
MIC (Sh. dysenteriae JS 11910): 0.2 µg/mL (≈ 0.314 µM)
MIC (E. coli NIHJ; E. coli NIHJ, read-out: MIC): 6.25 µg/mL (≈ 9.8 µM)
MIC (Staph. aureus 209 P; [4]): 0.2 µg/mL (≈ 0.314 µM)
MIC (Kleb. pneumoniae PCI 602): 1.56 µg/mL (≈ 2.45 µM)
MIC (Ataph. aureus MS 9861): 3.12 µg/mL (≈ 4.89 µM)
MIC (Sal. enteritidis 1891; [2]): 0.78 µg/mL (≈ 1.22 µM)
MIC (B. subtilis NRRL B-558): < 0.2 µg/mL

CCC1OC(=O)CC(O)C(C)C(OC2OC(C)CC(N(C)C)C2O)C(CC=O)CC(C)C(=O)C=CC(C)=CC1COC1CCCS1 (centres unmarked) [Example 18, 23-O-tetrahydrothiofuranyl-4'-deoxy mycaminosyl tylonolide]
MIC (Staph. aureus MS 10225): 0.2 µg/mL (≈ 0.299 µM)
MIC (Sh. dysenteriae JS 11910): 0.39 µg/mL (≈ 0.584 µM)
MIC (E. coli NIHJ; E. coli NIHJ, read-out: MIC): 6.25 µg/mL (≈ 9.36 µM)
MIC (Staph. aureus 209 P; [4]): < 0.2 µg/mL
MIC (Kleb. pneumoniae PCI 602; [1]): 1.56 µg/mL (≈ 2.34 µM)
MIC (Ataph. aureus MS 9861): 0.2 µg/mL (≈ 0.299 µM)
MIC (Sal. enteritidis 1891; [2]): 1.56 µg/mL (≈ 2.34 µM)
MIC (B. subtilis NRRL B-558): < 0.2 µg/mL

CCC1OC(=O)CC(O)C(C)C(OC2OC(C)CC(N(C)C)C2O)C(CC=O)CC(C)C(=O)C=CC(C)=CC1COC1CCCCS1 (centres unmarked) [Example 19, 23-O-tetrahydrothiopyranyl-4'-deoxy mycaminosyl tylonolide]
MIC (Staph. aureus MS 10225): < 0.2 µg/mL
MIC (Sh. dysenteriae JS 11910): 0.39 µg/mL (≈ 0.572 µM)
MIC (E. coli NIHJ; E. coli NIHJ, read-out: MIC): 25 µg/mL (≈ 36.7 µM)
MIC (Staph. aureus 209 P; [4]): < 0.2 µg/mL
MIC (Kleb. pneumoniae PCI 602): 3.12 µg/mL (≈ 4.58 µM)
MIC (Ataph. aureus MS 9861): < 0.2 µg/mL
MIC (Sal. enteritidis 1891; [2]): 1.56 µg/mL (≈ 2.29 µM)
MIC (B. subtilis NRRL B-558): < 0.2 µg/mL

CCC1OC(=O)CC(O)C(C)C(OC2OC(C)CC(N(C)C)C2O)C(CC=O)CC(C)C(=O)C=CC(C)=CC1COCSC (centres unmarked) [Example 20, 23-O-methylthiomethyl-4'-deoxy mycaminosyl tylonolide]
MIC (Staph. aureus MS 10225): 0.78 µg/mL (≈ 1.22 µM)
MIC (Sh. dysenteriae JS 11910): 0.78 µg/mL (≈ 1.22 µM)
MIC (E. coli NIHJ; E. coli NIHJ, read-out: MIC): 6.25 µg/mL (≈ 9.74 µM)
MIC (Staph. aureus 209 P; [4]): < 0.2 µg/mL
MIC (Kleb. pneumoniae PCI 602; [1]): 1.56 µg/mL (≈ 2.43 µM)
MIC (Ataph. aureus MS 9861): 3.12 µg/mL (≈ 4.86 µM)
MIC (Sal. enteritidis 1891; [2]): 0.78 µg/mL (≈ 1.22 µM)
MIC (B. subtilis NRRL B-558; [3]): < 0.2 µg/mL

CCC1OC(=O)CC(O)C(C)C(OC2OC(C)CC(N(C)C)C2O)C(CC=O)CC(C)C(=O)C=CC(C)=CC1CCl (centres unmarked) [Example 21, 23-chloro-23,4'-dideoxy mycaminosyl tylonolide]
MIC (Staph. aureus MS 10225): 6.25 µg/mL (≈ 10.4 µM)
MIC (Sh. dysenteriae JS 11910): 0.39 µg/mL (≈ 0.65 µM)
MIC (E. coli NIHJ; E. coli NIHJ, read-out: MIC): 6.25 µg/mL (≈ 10.4 µM)
MIC (Staph. aureus 209 P; [4]): 0.78 µg/mL (≈ 1.3 µM)
MIC (Kleb. pneumoniae PCI 602; [1]): 1.56 µg/mL (≈ 2.6 µM)
MIC (Ataph. aureus MS 9861): 6.25 µg/mL (≈ 10.4 µM)
MIC (Sal. enteritidis 1891; [2]): 0.39 µg/mL (≈ 0.65 µM)
MIC (B. subtilis NRRL B-558; [3]): 0.2 µg/mL (≈ 0.333 µM)

CCC1OC(=O)CC(O)C(C)C(OC2OC(C)CC(N(C)C)C2O)C(CC=O)CC(C)C(=O)C=CC(C)=CC1CSc1ccccn1 (centres unmarked) [Example 27, 23,4'-dideoxy-23-(pyridine-2-ylthio) mycaminosyl tylonolide]
MIC (Staph. aureus MS 10225): 0.39 µg/mL (≈ 0.578 µM)
MIC (Sh. dysenteriae JS 11910): 0.2 µg/mL (≈ 0.296 µM)
MIC (E. coli NIHJ): 12.5 µg/mL (≈ 18.5 µM)
MIC (Staph. aureus 209 P; [4]): < 0.2 µg/mL
MIC (Kleb. pneumoniae PCI 602; [1]): 1.56 µg/mL (≈ 2.31 µM)
MIC (Ataph. aureus MS 9861): 0.78 µg/mL (≈ 1.16 µM)
MIC (Sal. enteritidis 1891; [2]): 0.78 µg/mL (≈ 1.16 µM)
MIC (B. subtilis NRRL B-558; [3]): < 0.2 µg/mL

CC[C@H]1OC(=O)C[C@@H](O)[C@H](C)[C@@H](O[C@@H]2O[C@H](C)[C@@H](O[C@H]3C[C@@](C)(O)[C@@H](O)[C@H](C)O3)[C@H](N(C)C)[C@H]2O)[C@@H](CC=O)C[C@@H](C)C(=O)/C=C/C(C)=C/[C@@H]1CO[C@@H]1O[C@H](C)[C@@H](O)[C@@H](OC)[C@H]1OC [Tylosin]
MIC (Staph. aureus MS 10225): 3.12 µg/mL (≈ 3.41 µM)
MIC (Sh. dysenteriae JS 11910): 12.5 µg/mL (≈ 13.6 µM)
MIC (E. coli NIHJ): 100 µg/mL (≈ 109 µM)
MIC (Staph. aureus 209 P; 209P): 0.39 µg/mL (≈ 0.426 µM)
MIC (Kleb. pneumoniae PCI 602; [1]): 25 µg/mL (≈ 27.3 µM)
MIC (Ataph. aureus MS 9861): 6.25 µg/mL (≈ 6.82 µM)
MIC (Sal. enteritidis 1891; [2]): 25 µg/mL (≈ 27.3 µM)

— patent US4438109A, “Tylosin derivatives” (Zaidan Hojin Biseibutsu Kagaku Kenkyu Kai, priority 1980, dated 1984)
